# Measured values reported in patent US20220281848A1, “PYRAZOLE-SUBSTITUTED PYRROLIDINONES AS HERBICIDES” (FMC Corporation, priority 2019, published 2022).
# System: plants
# Assay: Test D pre-emergence, other plants of Tables D1 and D3
# Assay type: in vivo
# Settings: 20 DAA; for damage to plant (100=total damage to plant; 0=no damage to plant), BIDPI / damage to plant (100=total damage to plant; 0=no damage to plant), BRAPL / damage to plant (100=total damage to plant; 0=no damage to plant), CYPES / damage to plant (100=total damage to plant; 0=no damage to plant), EPHHL / damage to plant (100=total damage to plant; 0=no damage to plant), GLXMA / damage to plant (100=total damage to plant; 0=no damage to plant), IPOHE / damage to plant (100=total damage to plant; 0=no damage to plant), SORVU: preemergent; for CHEAL damage rating / GALAP damage rating / KCHSC damage rating / LOLPE damage rating / POAAN damage rating / STEME damage rating / VERPE damage rating: pre-emergence, 100=total damage, 0=no damage
# How it was run: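 Seeds treated with herbicide safener; sown in soil; glasshouse, 16 h light, 65% humidity. Sprayed day 1 (pre) or ~day 12 (post). Spray in 0.2% v/v adjuvant. Scored 0–100 damage: 20 DAA pre, 15 d post.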
compound,measurement,setting,value
CN1CC(c2cc(C(F)(F)F)n(C)n2)C(C(=O)Nc2ccc(F)cc2C(C)(F)F)C1=O (racemic) [Compound 26],"damage to plant (100=total damage to plant; 0=no damage to plant), BIDPI",rate 15,0
same,"damage to plant (100=total damage to plant; 0=no damage to plant), BIDPI",rate 30,0
same,"damage to plant (100=total damage to plant; 0=no damage to plant), BIDPI",rate 60,0
same,"damage to plant (100=total damage to plant; 0=no damage to plant), BIDPI",rate 130,0
same,"damage to plant (100=total damage to plant; 0=no damage to plant), BIDPI",rate 250,0
same,"damage to plant (100=total damage to plant; 0=no damage to plant), BIDPI",rate 500,0
same,"damage to plant (100=total damage to plant; 0=no damage to plant), BRAPL",rate 15,0
same,"damage to plant (100=total damage to plant; 0=no damage to plant), BRAPL",rate 30,70
same,"damage to plant (100=total damage to plant; 0=no damage to plant), BRAPL",rate 60,80
same,"damage to plant (100=total damage to plant; 0=no damage to plant), BRAPL",rate 130,80
same,"damage to plant (100=total damage to plant; 0=no damage to plant), BRAPL",rate 250,80
same,"damage to plant (100=total damage to plant; 0=no damage to plant), BRAPL",rate 500,80
same,CHEAL damage rating,Rates 15,0
same,CHEAL damage rating,Rates 30,0
same,CHEAL damage rating,Rates 60,0
same,CHEAL damage rating,Rates 130,0
same,CHEAL damage rating,Rates 250,10
same,CHEAL damage rating,Rates 500,10
same,"damage to plant (100=total damage to plant; 0=no damage to plant), CYPES",rate 15,0
same,"damage to plant (100=total damage to plant; 0=no damage to plant), CYPES",rate 30,0
same,"damage to plant (100=total damage to plant; 0=no damage to plant), CYPES",rate 60,0
same,"damage to plant (100=total damage to plant; 0=no damage to plant), CYPES",rate 130,0
same,"damage to plant (100=total damage to plant; 0=no damage to plant), CYPES",rate 250,0
same,"damage to plant (100=total damage to plant; 0=no damage to plant), CYPES",rate 500,10
same,"damage to plant (100=total damage to plant; 0=no damage to plant), EPHHL",rate 15,0
same,"damage to plant (100=total damage to plant; 0=no damage to plant), EPHHL",rate 30,0
same,"damage to plant (100=total damage to plant; 0=no damage to plant), EPHHL",rate 60,0
same,"damage to plant (100=total damage to plant; 0=no damage to plant), EPHHL",rate 130,0
same,"damage to plant (100=total damage to plant; 0=no damage to plant), EPHHL",rate 250,0
same,"damage to plant (100=total damage to plant; 0=no damage to plant), EPHHL",rate 500,0
same,GALAP damage rating,Rates 15,0
same,GALAP damage rating,Rates 30,0
same,GALAP damage rating,Rates 60,0
same,GALAP damage rating,Rates 130,0
same,GALAP damage rating,Rates 250,0
same,GALAP damage rating,Rates 500,20
same,"damage to plant (100=total damage to plant; 0=no damage to plant), GLXMA",rate 15,0
same,"damage to plant (100=total damage to plant; 0=no damage to plant), GLXMA",rate 30,0
same,"damage to plant (100=total damage to plant; 0=no damage to plant), GLXMA",rate 60,0
same,"damage to plant (100=total damage to plant; 0=no damage to plant), GLXMA",rate 130,0
same,"damage to plant (100=total damage to plant; 0=no damage to plant), GLXMA",rate 250,0
same,"damage to plant (100=total damage to plant; 0=no damage to plant), GLXMA",rate 500,0
same,"damage to plant (100=total damage to plant; 0=no damage to plant), IPOHE",rate 15,0
same,"damage to plant (100=total damage to plant; 0=no damage to plant), IPOHE",rate 30,0
same,"damage to plant (100=total damage to plant; 0=no damage to plant), IPOHE",rate 60,0
same,"damage to plant (100=total damage to plant; 0=no damage to plant), IPOHE",rate 130,0
same,"damage to plant (100=total damage to plant; 0=no damage to plant), IPOHE",rate 250,0
same,"damage to plant (100=total damage to plant; 0=no damage to plant), IPOHE",rate 500,0
same,KCHSC damage rating,Rates 15,0
same,KCHSC damage rating,Rates 30,0
same,KCHSC damage rating,Rates 60,0
same,KCHSC damage rating,Rates 130,0
same,KCHSC damage rating,Rates 250,0
same,KCHSC damage rating,Rates 500,0
same,LOLPE damage rating,Rates 15,0
same,LOLPE damage rating,Rates 30,0
same,LOLPE damage rating,Rates 60,0
same,LOLPE damage rating,Rates 130,30
same,LOLPE damage rating,Rates 250,90
same,LOLPE damage rating,Rates 500,90
same,POAAN damage rating,Rates 15,0
same,POAAN damage rating,Rates 30,0
same,POAAN damage rating,Rates 60,0
same,POAAN damage rating,Rates 130,30
same,POAAN damage rating,Rates 250,60
same,POAAN damage rating,Rates 500,100
same,"damage to plant (100=total damage to plant; 0=no damage to plant), SORVU",rate 15,0
same,"damage to plant (100=total damage to plant; 0=no damage to plant), SORVU",rate 30,0
same,"damage to plant (100=total damage to plant; 0=no damage to plant), SORVU",rate 60,0
same,"damage to plant (100=total damage to plant; 0=no damage to plant), SORVU",rate 130,0
same,"damage to plant (100=total damage to plant; 0=no damage to plant), SORVU",rate 250,0
same,"damage to plant (100=total damage to plant; 0=no damage to plant), SORVU",rate 500,0
same,STEME damage rating,Rates 15,0
same,STEME damage rating,Rates 30,0
same,STEME damage rating,Rates 60,0
same,STEME damage rating,Rates 130,10
same,STEME damage rating,Rates 250,40
same,STEME damage rating,Rates 500,70
same,VERPE damage rating,Rates 15,0
same,VERPE damage rating,Rates 30,0
same,VERPE damage rating,Rates 60,0
same,VERPE damage rating,Rates 130,0
same,VERPE damage rating,Rates 250,10
